# Measurements published in patent US6737431B2 (Bristol-Myers Squibb Company, priority 2002, dated 2004).
# Key:
# [1] = biological target: T1, melatonin ML1b receptor (Homo sapiens, UniProt P49286); experiment: Melatonergic receptor binding, 2-[125I]-iodomelatonin, ML1b; conditions: NIH-3T3 membranes, 0.2 nM 2-[125I]-iodomelatonin, 37° C. 1 hour
# T1 construct: expressed in transfected cells; membrane homogenates
# T1 sequence (P49286 1-362): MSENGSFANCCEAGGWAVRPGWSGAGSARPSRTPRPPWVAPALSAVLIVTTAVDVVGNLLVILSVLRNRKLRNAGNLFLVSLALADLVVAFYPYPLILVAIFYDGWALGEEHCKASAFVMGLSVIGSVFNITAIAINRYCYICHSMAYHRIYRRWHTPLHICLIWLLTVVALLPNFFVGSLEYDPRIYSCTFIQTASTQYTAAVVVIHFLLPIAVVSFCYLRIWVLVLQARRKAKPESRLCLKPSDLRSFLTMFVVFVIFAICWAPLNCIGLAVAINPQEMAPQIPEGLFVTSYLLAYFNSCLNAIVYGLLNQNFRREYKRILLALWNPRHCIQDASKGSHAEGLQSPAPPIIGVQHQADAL
# Procedure: (§1) Melatonergic Receptor Binding Activity
# (§2) (a) TME=50 mM Tris buffer containing 12.5 mM MgCl2, and 2 mM EDTA, pH 7.4 at 37° C., with concentrated HCl.
# (§3) (b) Wash buffer: 20 mM Tris base containing 2 mM MgCl2, pH 7.4 at room temperature.
# (§4) (c) 10^−4 M melatonin (10^−5 M final concentration).
# (e) 2-[^125I]-iodomelatonin ML1b, 0.2 nM final concentration.
# (§5) 2. Membrane Homogenates: The melatonin ML1a and ML1b receptors cDNA were individually subcloned into pcDNA3 and introduced into NIH-3T3 cells using Lipofectamine. Transformed NIH-3T3 cells resistant to geneticin (G-418) were isolated, and single colonies expressing high levels of 2[^125I]-iodomelatonin binding were isolated. Cells are maintained in DMEM supplemented with 10% calf serum and G-418 (0.5 g/liter). Cells are grown to confluency in T-175 flasks, scraped using Hank's balanced salt solution, and frozen at −80° C. For preparing membrane homogenates, pellets are thawed on ice, and re-suspended in TME buffer in the presence of 10 μg/ml aprotinin and leupeptin, and 100 μM phenylmethylsulfonylfluoride. The cells were then homogenized using a dounce homogenizer, and centrifuged. The resulting pellet was re-suspended with dounce homogenizer in TME (supplemented with the above protease inhibitors) and frozen. On the day of assay, a small aliquot was thawed on ice and re-suspended in the ice cold TME (1:50-1:100 v/v) and held on ice until assayed.
# (§6) 3. Incubation: 37° C. for 1 hour. Reaction is terminated by filtration. Filters were washed 3 times.
# (§7) 4. References: Reppert, S. M. et al., Neuron, 13, p. 1177-1185 (1994); and Reppert, S. M. et al., Proc. Natl. Acad. Sci. USA, 92, p. 8734-8738 (1995).
# (§8) The compounds of the present invention have affinity for receptors of the endogenous pineal hormone, melatonin, as determined in receptor binding assays described above in Tables I to III for the ML1a and ML1b (human) receptors. Melatonin is involved in the regulation of a variety of biological rhythms and exerts its biological effects via interaction with specific receptors. There is evidence that administration of melatonin agonists are of clinical utility in the treatment of various conditions regulated by melatonin activity. Such conditions include depression, jet-lag, work-shift syndrome, sleep disorders, glaucoma, some disorders associated with reproduction, cancer benign prostatic hyperplasia, immune disorders, and neuroendocrine disorders.
# [2] = biological target: T2, melatonin ML1a receptor (Homo sapiens, UniProt P48039); experiment: Melatonergic receptor binding, 2-[125I]-iodomelatonin, ML1a; conditions: Table I; NIH-3T3 membranes, 0.1 nM 2-[125I]-iodomelatonin, 37° C. 1 hour
# T2 construct: expressed in transfected cells; membrane homogenates
# T2 sequence (P48039 whole entry): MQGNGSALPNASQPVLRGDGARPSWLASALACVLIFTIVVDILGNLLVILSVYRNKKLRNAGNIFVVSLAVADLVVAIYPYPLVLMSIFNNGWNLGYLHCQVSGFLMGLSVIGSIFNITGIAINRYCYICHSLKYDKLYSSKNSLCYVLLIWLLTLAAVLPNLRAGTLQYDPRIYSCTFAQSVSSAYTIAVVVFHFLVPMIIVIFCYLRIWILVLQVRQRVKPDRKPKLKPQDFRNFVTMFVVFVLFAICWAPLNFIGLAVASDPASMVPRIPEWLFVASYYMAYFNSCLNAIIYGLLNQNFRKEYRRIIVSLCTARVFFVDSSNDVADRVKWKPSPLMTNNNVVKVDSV
# Procedure: as §1, §2, §3, §4
# (d) 2-[^125I]-iodomelatonin ML1a, 0.1 nM final concentration.
# as §5, §6, §7, §8
Structure (SMILES),IC50 ([1]; Table I) [nM],IC50 [2] [nM],IC50 ([1]; Table II) [nM]
"CC(=O)NCCCc1cccc2nc(C)oc12 [Example 1, N-[3-(2-Methyl-7-benzoxazolyl)propyl]acetamide]",10 to 250,10 to 250,–
"CCCC(=O)NCCCc1cccc2nc(C)oc12 [Example 3, N-[3-(2-Methyl-7-benzoxazolyl)propyl]butanamide]",< 10,< 10,–
"Cc1nc2cccc(CCCNC(=O)C3CC3)c2o1 [Example 4, N-[3-(2-Methyl-7-benzoxazolyl)propyl]cyclopropanecarboxamide]",< 10,< 10,–
"Cc1nc2cccc(CCCNC(=O)C(C)C)c2o1 [Example 5, N-[3-(2-Methyl-7-benzoxazolyl)propyl]-2-methylpropanamide]",< 10,< 10,–
"CCNC(=O)NCCCc1cccc2nc(C)oc12 [Example 6, (Ethylamino)-N-[3-(2-methylbenzoxazol-7-yl)propyl]carboxamide]",10 to 250,10 to 250,–
"CCc1nc2cccc(CCCNC(C)=O)c2o1 [Example 7, N-[3-(2-Ethylbenzoxazol-7-yl)propyl]acetamide]",< 10,10 to 250,–
"CCc1nc2cccc(CCCNC(=O)C(C)C)c2o1 [Example 10, N-[3-(2-Ethylbenzoxazol-7-yl)propyl]-2-methylpropanamide]",10 to 250,10 to 250,–
"CCc1nc2cccc(CCCNC(=O)C3CC3)c2o1 [Example 11, Cyclopropyl-N-[3-(2-ethylbenzoxazol-7-yl)propyl]carboxamide]",10 to 250,< 10,–
"CCNC(=O)NCCCc1cccc2nc(CC)oc12 [Example 12, (Ethylamino)-N-[3-(2-ethylbenzoxazol-7-yl)propyl]carboxamide]",10 to 250,10 to 250,–
"CCCc1nc2cccc(CCCNC(=O)C(C)C)c2o1 [Example 16, 2-Methyl-N-[3-(2-propylbenzoxazol-7-yl)propyl]propanamide]",10 to 250,10 to 250,–
"CC(=O)NCCCc1cccc2ncoc12 [Example 31, N-(3-Benzoxazol-7-ylpropyl)acetamide]",10 to 250,10 to 250,–
"CCC(=O)NCCCc1cccc2ncoc12 [Example 32, N-(3-Benzoxazol-7-ylpropyl)propanamide]",< 10,10 to 250,–
"CC(C)C(=O)NCCCc1cccc2ncoc12 [Example 33, N-(3-Benzoxazol-7-ylpropyl)-2-methylpropanamide]",< 10,10 to 250,–
"CC(=O)NCCCc1cccc2nc(C(C)C)oc12 [Example 34, N-{3-[2-(Methylethyl)benzoxazol-7-yl]propyl}acetamide]",10 to 250,10 to 250,–
"CCC(=O)NCCCc1cccc2nc(C(C)C)oc12 [Example 35, N-{3-[2-(Methylethyl)benzoxazol-7-yl]propyl}propanamide]",10 to 250,10 to 250,–
"CCCC(=O)NCCCc1cccc2nc(C(C)C)oc12 [Example 36, N-{3-[2-(Methylethyl)benzoxazol-7-yl]propyl}butanamide]",10 to 250,10 to 250,–
"CC(C)C(=O)NCCCc1cccc2nc(C(C)C)oc12 [Example 37, 2-Methyl-N-{3-[2-(methylethyl)benzoxazol-7-yl]propyl}propanamide]",10 to 250,10 to 250,–
"CCc1nc2ccc(-c3ccco3)c(CCCNC(=O)c3ccccc3)c2o1 [Example 74, N-[3-(2-Ethyl-6-(2-furyl)benzoxazol-7-yl)propyl]benzamide]",–,–,> 250

# Results, then the molecule that gave them:
IC50 ([1]; Table I) [nM],IC50 [2] [nM],IC50 ([1]; Table II) [nM],Structure (SMILES)
< 10,< 10,–,"CCC(=O)NCCCc1cccc2nc(C)oc12 [Example 2, N-[3-(2-Methyl-7-benzoxazolyl)propyl]propanamide]"
< 10,< 10,–,"CCC(=O)NCCCc1cccc2nc(CC)oc12 [Example 8, N-[3-(2-Ethylbenzoxazol-7-yl)propyl]propanamide]"
< 10,10 to 250,–,"CCCC(=O)NCCCc1cccc2nc(CC)oc12 [Example 9, N-[3-(2-Ethylbenzoxazol-7-yl)propyl]butanamide]"
10 to 250,> 250,–,"CCCc1nc2cccc(CCCNC(C)=O)c2o1 [Example 13, N-[3-(2-Propylbenzoxazol-7-yl)propyl]acetamide]"
10 to 250,10 to 250,–,"CCCc1nc2cccc(CCCNC(=O)CC)c2o1 [Example 14, N-[3-(2-Propylbenzoxazol-7-yl)propyl]propanamide]"
10 to 250,> 250,–,"CCCC(=O)NCCCc1cccc2nc(CCC)oc12 [Example 15, N-[3-(2-Propylbenzoxazol-7-yl)propyl]butanamide]"
10 to 250,10 to 250,–,"CCCc1nc2cccc(CCCNC(=O)C3CC3)c2o1 [Example 17, Cyclopropyl-N-[3-(2-propylbenzoxazol-7-yl)propyl]carboxamide]"
10 to 250,> 250,–,"CCCc1nc2cccc(CCCNC(=O)NCC)c2o1 [Example 18, (Ethylamino)-N-[3-(2-propylbenzoxazol-7-yl)propyl]carboxamide]"
10 to 250,10 to 250,–,"CC(=O)NCCCc1cccc2nc(-c3ccccc3)oc12 [Example 19, N-[3-(2-Phenylbenzoxazol-7-yl)propyl]acetamide]"
10 to 250,10 to 250,–,"CCC(=O)NCCCc1cccc2nc(-c3ccccc3)oc12 [Example 20, N-[3-(2-Phenylbenzoxazol-7-yl)propyl]propanamide]"
10 to 250,10 to 250,–,"CCCC(=O)NCCCc1cccc2nc(-c3ccccc3)oc12 [Example 21, N-[3-(2-Phenylbenzoxazol-7-yl)propyl]butanamide]"
10 to 250,10 to 250,–,"CC(C)C(=O)NCCCc1cccc2nc(-c3ccccc3)oc12 [Example 22, 2-Methyl-N-[3-(2-phenylbenzoxazol-7-yl)propyl]propanamide]"
10 to 250,10 to 250,–,"O=C(NCCCc1cccc2nc(-c3ccccc3)oc12)C1CC1 [Example 23, Cyclopropyl-N-[3-(2-phenylbenzoxazol-7-yl)propyl]carboxamide]"
10 to 250,> 250,–,"CCNC(=O)NCCCc1cccc2nc(-c3ccccc3)oc12 [Example 24, (Ethylamino)-N-[3-(2-phenylbenzoxazol-7-yl)propyl]carboxamide]"
10 to 250,< 10,–,"CC(=O)NCCCc1cccc2nc(CCCCc3ccccc3)oc12 [Example 25, N-{3-[2-(4-Phenylbutyl)benzoxazol-7-yl]propyl}acetamide]"
10 to 250,< 10,–,"CCC(=O)NCCCc1cccc2nc(CCCCc3ccccc3)oc12 [Example 26, N-{3-[2-(4-Phenylbutyl)benzoxazol-7-yl]propyl}propanamide]"
10 to 250,< 10,–,"CCCC(=O)NCCCc1cccc2nc(CCCCc3ccccc3)oc12 [Example 27, N-{3-[2-(4-Phenylbutyl)benzoxazol-7-yl]propyl}butanamide]"
10 to 250,< 10,–,"CC(C)C(=O)NCCCc1cccc2nc(CCCCc3ccccc3)oc12 [Example 28, 2-Methyl-N-{3-[2-(4-phenylbutyl)benzoxazol-7-yl]propyl}propanamide]"
10 to 250,< 10,–,"O=C(NCCCc1cccc2nc(CCCCc3ccccc3)oc12)C1CC1 [Example 29, Cyclopropyl-N-{3-[2-(4-phenylbutyl)benzoxazol-7-yl]propyl}carboxamide]"
10 to 250,< 10,–,"CCNC(=O)NCCCc1cccc2nc(CCCCc3ccccc3)oc12 [Example 30, (Ethylamino)-N-{3-[2-(4-phenylbutyl)benzoxazol-7-yl]propyl}carboxamide]"
